From ChEMBL document CHEMBL1149762, “Carbamate prodrugs of N-alkylfuramidines” (Eur J Med Chem, 2008) come the findings set out here.

The subject of data set [1] is Rattus norvegicus. As to the kind of experiment: Toxicity against immunosuppressed rat pneumocystis model at 10.8 umol/kg/day, iv. It is filed as organism-based. The settings on record: in vivo.
Data set [2] deals with Pneumocystis carinii. As to the kind of experiment: Antimicrobial activity against Pneumocystis carinii in immunosuppressed rat assessed as number of cysts/g of lung at 10.8 umol/kg/day, iv relative to control. In kind it is functional.
Data set [3] concerns Pneumocystis carinii. As to the kind of experiment: Antimicrobial activity against Pneumocystis carinii in immunosuppressed rat assessed as number of cysts/g of lung at 33.0 umol/kg/day, po relative to control. In kind it is functional.
Data set [4] deals with Rattus norvegicus. Nature of the data set: Toxicity against immunosuppressed rat pneumocystis model at 33.0 umol/kg/day, po. In kind it is organism-based. The settings on record: in vivo.
The test system of data set [5] is Pneumocystis carinii. Nature of the data set: Antimicrobial activity against Pneumocystis carinii in immunosuppressed rat assessed as number of cysts/g of lung at 9.4 umol/kg/day, iv relative to control. In kind it is functional.
The test system of data set [6] is Rattus norvegicus. As to the kind of experiment: Toxicity against immunosuppressed rat pneumocystis model at 22.0 umol/kg/day, iv. As to conditions: in vivo. It is filed as organism-based.
Data set [7] has as its system Pneumocystis carinii. Nature of the data set: Antimicrobial activity against Pneumocystis carinii in immunosuppressed rat assessed as number of cysts/g of lung at 22.0 umol/kg/day, iv relative to control. In kind it is functional.
The subject of data set [8] is Pneumocystis carinii. Nature of the data set: Antimicrobial activity against Pneumocystis carinii in immunosuppressed rat assessed as number of cysts/g of lung at 11.0 umol/kg/day, iv relative to control. It is filed as functional.
Data set [9] relates to Rattus norvegicus. As to the kind of experiment: Toxicity against immunosuppressed rat pneumocystis model at 11.0 umol/kg/day, iv. It is filed as organism-based. The settings on record: in vivo.
The subject of data set [10] is Rattus norvegicus. As to the kind of experiment: Toxicity against immunosuppressed rat pneumocystis model at 13.3 umol/kg/day, iv. The settings on record: in vivo. It is filed as organism-based.
For data set [11], the system named is Pneumocystis carinii. Nature of the data set: Antimicrobial activity against Pneumocystis carinii in immunosuppressed rat assessed as number of cysts/g of lung at 13.3 umol/kg/day, iv relative to control. It is filed as functional.
The test system of data set [12] is Rattus norvegicus. Nature of the data set: Toxicity against immunosuppressed rat pneumocystis model at 39.8 umol/kg/day, po. In kind it is organism-based. The settings on record: in vivo.
The test system of data set [13] is Pneumocystis carinii. As to the kind of experiment: Antimicrobial activity against Pneumocystis carinii in immunosuppressed rat assessed as number of cysts/g of lung at 39.8 umol/kg/day, po relative to control. In kind it is functional.

As for `CC(C)NC(=N)c1ccc(-c2ccc(-c3ccc(C(=N)NC(C)C)cc3)o2)cc1`, the Activity entry with Rattus norvegicus [1] is recorded as “Non-toxic”; in the data set with Pneumocystis carinii [2], 0.26%; in the data set on Pneumocystis carinii [3] it was 78.52%; in the data set on Rattus norvegicus [4] it was “Non-toxic”.
With `N=C(NC1CCCC1)c1ccc(-c2ccc(-c3ccc(C(=N)NC4CCCC4)cc3)o2)cc1`, the Activity in the data set on Pneumocystis carinii [3] was 125.3%; with Rattus norvegicus [4] it was “Non-toxic”; in the data set with Pneumocystis carinii [5], 0.04%.
With `N/C(=N\C(=O)OCC(Cl)(Cl)Cl)c1ccc(-c2ccc(-c3ccc(/C(N)=N\C(=O)OCC(Cl)(Cl)Cl)cc3)o2)cc1`, the Activity entry in the data set with Rattus norvegicus [6] is “Non-toxic”; in the data set on Pneumocystis carinii [3], 5.45%; with Rattus norvegicus [4] it was “Non-toxic”; in the data set with Pneumocystis carinii [7] it was 1.72%.
As to `O=C(/N=C(\NC1CCCC1)c1ccc(-c2ccc(-c3ccc(/C(=N\C(=O)OCC(Cl)(Cl)Cl)NC4CCCC4)cc3)o2)cc1)OCC(Cl)(Cl)Cl`, the Activity result is “Non-toxic” in the data set on Rattus norvegicus [6], 3.7% in the data set on Pneumocystis carinii [3], “Non-toxic” in the data set on Rattus norvegicus [4] and 39.84% in the data set on Pneumocystis carinii [7].
Regarding `CCOC(=O)/N=C(\NC(C)C)c1ccc(-c2ccc(-c3ccc(/C(=N/C(=O)OCC)NC(C)C)cc3)o2)cc1`, the Activity in the data set on Pneumocystis carinii [8] is 82.21%; in the data set with Rattus norvegicus [9] it was “Non-toxic”; in the data set with Pneumocystis carinii [3], 51.92%; in the data set on Rattus norvegicus [4], “Non-toxic”.
As to `CC(C)N/C(=N\C(=O)OCC(Cl)(Cl)Cl)c1ccc(-c2ccc(-c3ccc(/C(=N\C(=O)OCC(Cl)(Cl)Cl)NC(C)C)cc3)o2)cc1`, the Activity result was “Non-toxic” with Rattus norvegicus [6], 2.01% in the data set on Pneumocystis carinii [3], “Non-toxic” in the data set with Rattus norvegicus [4] and 0.02% in the data set on Pneumocystis carinii [7].
On to `N=C(N)c1ccc(-c2ccc(-c3ccc(C(=N)N)cc3)o2)cc1` [FURAMIDINE], for which the Activity result with Rattus norvegicus [10] was “Non-toxic”; with Pneumocystis carinii [11], 0.86%; in the data set with Rattus norvegicus [12], “Non-toxic”; with Pneumocystis carinii [13] it was 15.67%.
In the case of `CONC(=N)c1ccc(-c2ccc(-c3ccc(C(=N)NOC)cc3)o2)cc1` [PAFURAMIDINE], the Activity entry in the data set with Rattus norvegicus [6] was “Non-toxic”; with Pneumocystis carinii [3], 1.21%; in the data set on Rattus norvegicus [4] it was “Non-toxic”; in the data set with Pneumocystis carinii [7], 13.99%.
As for `N=C(N)c1ccc(OCCCCCOc2ccc(C(=N)N)cc2)cc1` [PENTAMIDINE], the Activity was 67.78% in the data set with Pneumocystis carinii [3], “Non-toxic” with Rattus norvegicus [4] and 2.75% in the data set with Pneumocystis carinii [7].
